Source: US8211935B2, “Heterocyclic derivatives for modulation of calcium channels” (Vertex Pharmaceuticals Incorporated, priority 2004, dated 2012)
pIC50: −log10 of the molar value.

What follows are compounds tested against T1, CaV2.2 (Homo sapiens, UniProt Q00975) (assay: VIPR optical membrane potential assay with electrical stimulation). Settings: not given.
T1 construct: expressed in transfected cells; host or cells: HEK293
Type: cell-based
Method: Antagonist properties of test compounds were assessed as follows. Cells expressing the CaV of interest were placed into microtiter plates. After an incubation period, the cells were stained with fluorescent dyes sensitive to the transmembrane potential. The test compounds were added to the microtiter plate. The cells were stimulated with electrical means to evoke a CaV dependent membrane potential change from unblocked channels, which was detected and measured with trans-membrane potential-sensitive dyes. Antagonists were detected as a decreased membrane potential response to the stimulus.
VIPR® Optical Membrane Potential Assay Method with Electrical Stimulation
The following is an example of how CaV2.2 inhibition activity is measured using the optical membrane potential method. Other subtypes are performed in an analogous mode in a cell line expressing the CaV of interest.
HEK293 cells stably expressing CaV2.2 are plated into 96-well microtiter plates. After an appropriate incubation period, the cells are stained with the voltage sensitive dyes CC2-DMPE/DiSBAC2(3) as follows.
2×CC2-DMPE=20 μM CC2-DMPE: 10 mM CC2-DMPE is vortexed with an equivalent volume of 10% Pluronic, followed by vortexing in required amount of HBSS containing 10 mM HEPES. Each cell plate will require 5 mL of 2×CC2-DMPE. 50 μL of 2×CC2-DMPE is added to wells containing washed cells, resulting in a 10 μM final staining concentration. The cells are stained for 30 minutes in the dark at RT.
Vortex in required amount of Bath X with beta-cyclodextrin. Each 96 well cell plate will require 5 ml of 2×CC2DMPE. Wash plate with ELx405 with Bath X, leaving a residual volume of 50 μL/well. Add 50 μL of 2×CC2DMPE & DISBAC6(3) to each well. Stain for 30 minutes in the dark at RT.
Allow solution to sit for 10 minutes. Slowly mix in 370 mM BaCl2. This solution can be used to solvate compound plates. Note that compound plates are made at 1.5× drug concentration and not the usual 2×. Wash CC2 stained plate, again, leaving residual volume of 50 pt. Add 100 uL/well of the AY17 solution. Stain for 15 minutes in the dark at RT. Run plate on the optical reader.
The instrument comprises a microtiter plate handler, an optical system for exciting the coumarin dye while simultaneously recording the coumarin and oxonol emissions, a waveform generator, a current- or voltage-controlled amplifier, and a device for inserting electrodes in well. Under integrated computer control, this instrument passes user-programmed electrical stimulus protocols to cells within the wells of the microtiter plate.
Insert or use electrodes into each well to be assayed.
Use the current-controlled amplifier to deliver stimulation wave pulses for 3-5 s. Two seconds of pre-stimulus recording are performed to obtain the un-stimulated intensities. Five seconds of post-stimulation recording are performed to examine the relaxation to the resting state.
Data are analyzed and reported as normalized ratios of background-subtracted emission intensities measured in the 460 nm and 580 nm channels. Background intensities are then subtracted from each assay channel. Background intensities are obtained by measuring the emission intensities during the same time periods from identically treated assay wells in which there are no cells. The response as a function of time is then reported as the ratios obtained using the following formula: […]
The data is further reduced by calculating the initial (Ri) and final (Rf) ratios. These are the average ratio values during part or all of the pre-stimulation period, and during sample points during the stimulation period. The response to the stimulus R=Rf/Ri is then calculated.
Control responses are obtained by performing assays in the presence of a compound with the desired properties (positive control), such as mibefradil, and in the absence of pharmacological agents (negative control). Responses to the negative (N) and positive (P) controls are calculated as above.

T1 sequence (Q00975 whole entry): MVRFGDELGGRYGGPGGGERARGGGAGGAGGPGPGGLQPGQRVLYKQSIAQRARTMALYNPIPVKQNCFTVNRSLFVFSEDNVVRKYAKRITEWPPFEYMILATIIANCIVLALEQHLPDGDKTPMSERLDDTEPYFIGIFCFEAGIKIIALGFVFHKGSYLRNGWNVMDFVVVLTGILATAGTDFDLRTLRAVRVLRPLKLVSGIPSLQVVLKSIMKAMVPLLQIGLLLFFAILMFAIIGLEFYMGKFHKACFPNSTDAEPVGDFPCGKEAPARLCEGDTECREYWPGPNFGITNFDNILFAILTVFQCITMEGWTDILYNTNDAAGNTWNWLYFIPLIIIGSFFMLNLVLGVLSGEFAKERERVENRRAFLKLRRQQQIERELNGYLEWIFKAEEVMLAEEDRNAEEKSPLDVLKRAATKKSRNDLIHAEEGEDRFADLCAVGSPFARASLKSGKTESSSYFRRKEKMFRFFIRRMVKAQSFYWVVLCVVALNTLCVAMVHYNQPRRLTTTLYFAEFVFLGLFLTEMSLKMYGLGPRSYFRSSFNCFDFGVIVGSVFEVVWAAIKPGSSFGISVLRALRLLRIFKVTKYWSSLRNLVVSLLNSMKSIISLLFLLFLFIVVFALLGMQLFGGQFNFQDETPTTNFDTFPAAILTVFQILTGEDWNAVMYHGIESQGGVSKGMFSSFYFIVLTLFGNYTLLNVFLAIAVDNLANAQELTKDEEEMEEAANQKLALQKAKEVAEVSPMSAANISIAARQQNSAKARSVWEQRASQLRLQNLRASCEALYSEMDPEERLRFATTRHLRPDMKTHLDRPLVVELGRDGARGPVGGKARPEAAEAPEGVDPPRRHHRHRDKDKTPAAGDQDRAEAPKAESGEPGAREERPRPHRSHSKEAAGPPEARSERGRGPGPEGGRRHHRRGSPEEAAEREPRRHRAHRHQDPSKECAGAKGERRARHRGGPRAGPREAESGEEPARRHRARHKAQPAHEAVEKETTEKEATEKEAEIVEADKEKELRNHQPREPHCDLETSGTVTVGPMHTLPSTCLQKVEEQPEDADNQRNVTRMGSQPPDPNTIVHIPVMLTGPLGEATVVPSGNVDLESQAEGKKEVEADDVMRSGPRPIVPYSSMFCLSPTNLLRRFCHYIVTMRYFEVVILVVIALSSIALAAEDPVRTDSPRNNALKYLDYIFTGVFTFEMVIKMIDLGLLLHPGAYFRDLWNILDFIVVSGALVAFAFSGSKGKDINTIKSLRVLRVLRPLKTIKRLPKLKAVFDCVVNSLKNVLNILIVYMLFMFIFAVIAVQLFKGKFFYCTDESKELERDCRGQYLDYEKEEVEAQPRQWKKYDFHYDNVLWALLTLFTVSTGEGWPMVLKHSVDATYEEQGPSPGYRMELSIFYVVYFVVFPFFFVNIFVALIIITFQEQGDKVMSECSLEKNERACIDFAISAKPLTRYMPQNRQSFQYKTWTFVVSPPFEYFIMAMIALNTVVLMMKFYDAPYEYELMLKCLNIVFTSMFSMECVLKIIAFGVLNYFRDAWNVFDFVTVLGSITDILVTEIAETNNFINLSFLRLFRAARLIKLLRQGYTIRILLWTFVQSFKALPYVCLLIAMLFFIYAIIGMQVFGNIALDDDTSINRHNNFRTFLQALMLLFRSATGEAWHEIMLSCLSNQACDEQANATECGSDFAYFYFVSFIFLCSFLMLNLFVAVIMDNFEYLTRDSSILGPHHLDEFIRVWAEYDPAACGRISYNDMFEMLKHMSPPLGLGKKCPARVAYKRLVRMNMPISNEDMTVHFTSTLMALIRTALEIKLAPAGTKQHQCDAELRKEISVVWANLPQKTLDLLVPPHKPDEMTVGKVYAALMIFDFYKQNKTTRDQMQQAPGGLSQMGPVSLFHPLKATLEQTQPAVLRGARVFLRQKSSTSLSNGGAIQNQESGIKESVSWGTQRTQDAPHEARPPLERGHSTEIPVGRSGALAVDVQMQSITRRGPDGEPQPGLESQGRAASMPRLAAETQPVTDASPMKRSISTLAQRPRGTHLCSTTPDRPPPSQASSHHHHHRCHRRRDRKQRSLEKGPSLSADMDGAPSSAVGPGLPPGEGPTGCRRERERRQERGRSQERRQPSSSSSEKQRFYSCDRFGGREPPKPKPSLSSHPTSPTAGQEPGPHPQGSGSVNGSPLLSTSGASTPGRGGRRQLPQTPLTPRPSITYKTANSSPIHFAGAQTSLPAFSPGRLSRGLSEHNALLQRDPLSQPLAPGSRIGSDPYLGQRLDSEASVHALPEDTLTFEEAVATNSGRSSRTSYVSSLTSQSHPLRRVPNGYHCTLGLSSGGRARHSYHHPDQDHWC
T1 sequence (P54284 whole entry partner): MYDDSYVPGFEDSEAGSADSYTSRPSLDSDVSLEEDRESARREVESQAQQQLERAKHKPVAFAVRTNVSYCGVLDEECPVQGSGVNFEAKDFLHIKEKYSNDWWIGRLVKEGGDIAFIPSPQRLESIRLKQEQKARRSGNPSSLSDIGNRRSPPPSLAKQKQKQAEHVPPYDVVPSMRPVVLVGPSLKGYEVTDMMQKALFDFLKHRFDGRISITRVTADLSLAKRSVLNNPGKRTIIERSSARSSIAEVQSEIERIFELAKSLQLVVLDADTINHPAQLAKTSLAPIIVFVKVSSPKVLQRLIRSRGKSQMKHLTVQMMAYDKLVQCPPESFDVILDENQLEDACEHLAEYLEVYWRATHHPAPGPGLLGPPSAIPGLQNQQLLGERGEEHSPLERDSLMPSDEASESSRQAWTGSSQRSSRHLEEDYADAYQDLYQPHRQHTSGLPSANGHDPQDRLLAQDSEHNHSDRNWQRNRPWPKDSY
T1 sequence (P54289 25-946 partner limits assumed): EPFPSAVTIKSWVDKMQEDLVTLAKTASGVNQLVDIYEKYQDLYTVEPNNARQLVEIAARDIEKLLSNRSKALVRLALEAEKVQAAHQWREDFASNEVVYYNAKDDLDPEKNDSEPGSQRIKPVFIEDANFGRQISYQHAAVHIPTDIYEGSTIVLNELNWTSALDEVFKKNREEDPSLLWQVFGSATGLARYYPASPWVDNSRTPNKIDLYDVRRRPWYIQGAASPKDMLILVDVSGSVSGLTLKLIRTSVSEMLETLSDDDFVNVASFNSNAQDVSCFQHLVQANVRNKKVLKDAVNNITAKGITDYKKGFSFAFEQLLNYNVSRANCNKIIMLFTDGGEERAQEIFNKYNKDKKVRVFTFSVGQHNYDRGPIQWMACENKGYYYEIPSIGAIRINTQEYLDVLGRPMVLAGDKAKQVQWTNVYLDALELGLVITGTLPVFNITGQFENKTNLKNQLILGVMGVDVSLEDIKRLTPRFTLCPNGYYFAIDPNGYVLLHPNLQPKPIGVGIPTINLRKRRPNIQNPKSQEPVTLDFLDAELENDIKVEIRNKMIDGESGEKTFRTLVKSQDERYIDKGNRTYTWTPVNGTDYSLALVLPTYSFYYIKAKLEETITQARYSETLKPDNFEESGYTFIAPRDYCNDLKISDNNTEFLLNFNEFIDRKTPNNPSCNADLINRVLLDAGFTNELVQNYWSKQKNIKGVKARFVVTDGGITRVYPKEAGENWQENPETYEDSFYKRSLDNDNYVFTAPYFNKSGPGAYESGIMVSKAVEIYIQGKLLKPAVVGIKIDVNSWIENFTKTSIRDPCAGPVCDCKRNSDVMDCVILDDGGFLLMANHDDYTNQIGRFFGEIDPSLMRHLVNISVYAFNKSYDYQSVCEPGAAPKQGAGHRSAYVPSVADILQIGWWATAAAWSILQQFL
T1 sequence (P54289 947-1103 partner limits assumed): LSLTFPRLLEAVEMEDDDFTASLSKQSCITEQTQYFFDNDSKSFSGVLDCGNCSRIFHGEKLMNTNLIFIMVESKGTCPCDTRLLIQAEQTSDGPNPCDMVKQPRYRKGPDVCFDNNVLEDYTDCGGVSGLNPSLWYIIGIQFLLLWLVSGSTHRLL

Row | SMILES | pIC50
1 | O=C(c1cc2cc(S(=O)(=O)N3CCCCCC3)ccc2o1)N1CCC2(CC1)OCCO2 [compound 183] | 4.70 to 5.30
2 | Cc1c(C(=O)N2CCC3(CC2)OCCO3)[nH]c2ccc(S(=O)(=O)N3CCCCCC3)cc12 [compound 232] | 4.70 to 5.30
3 | Cc1c(C(=O)N2CCC3(CC2)OCCO3)[nH]c2ccc(S(=O)(=O)N3CCC(C)CC3)cc12 [compound 351] | 4.70 to 5.30

Same assay, conditions: Table 3, biological assay data; read-out: IC50

Row | SMILES | pIC50
4 | Cc1c(C(=O)NC(C)C)oc2ccc(S(=O)(=O)N3CCC(F)(F)CC3)cc12 [compound 204] | 4.70 to 5.30
5 | Cc1c(C(=O)N(C)Cc2ccccc2)oc2ccc(S(=O)(=O)N3CCCC(C)C3)cc12 (centres unmarked) [compound 213] | > 5.30
6 | Cc1ccc(CNC(=O)c2oc3ccc(S(=O)(=O)N4CCCC4)cc3c2C)cc1 [compound 86] | 4.70 to 5.30
7 | O=C(NCC1CCOCC1)c1cc2cc(S(=O)(=O)N3CCCCCC3)ccc2o1 [compound 363] | 4.70 to 5.30
8 | Cc1c(C(=O)NC2CC2)oc2ccc(S(=O)(=O)NCc3ccc(F)cc3)cc12 [compound 182] | > 4.70
9 | Cc1c(C(=O)NC2CC2)oc2ccc(S(=O)(=O)Nc3ccncc3)cc12 [compound 207] | > 4.70
10 | CC1CC(C)CN(S(=O)(=O)c2ccc3[nH]c(C(=O)NCC4CCCO4)cc3c2)C1 (centres unmarked) [compound 16] | > 5.30
11 | Cc1c(C(=O)N2CCCC2)oc2ccc(S(=O)(=O)N3CC(C)CC(C)C3)cc12 (centres unmarked) [compound 414] | > 5.30
12 | Cc1c(C(=O)N(C(C)C)C(C)C)[nH]c2ccc(S(=O)(=O)N3CCC(C)CC3)cc12 [compound 262] | > 5.30
13 | CC1CCN(S(=O)(=O)c2ccc3cc(C(=O)N(C)C)[nH]c3c2)CC1 [compound 380] | > 4.70
14 | CCNC(=O)c1cc2cc(S(=O)(=O)N3CCC(C)CC3)ccc2o1 [compound 131] | > 5.30
15 | CC1CCCCN1C(=O)c1cc2cc(S(=O)(=O)N3CCCCCC3)ccc2[nH]1 (centres unmarked) [compound 437] | > 4.70
16 | Cc1c(C(=O)NC2CCCCC2)[nH]c2ccc(S(=O)(=O)N3CCC(C)CC3)cc12 [compound 424] | 4.70 to 5.30
17 | Cc1c(C(=O)NC2CC2)oc2ccc(S(=O)(=O)Nc3ccccn3)cc12 [compound 50] | > 4.70
18 | Cc1c(C(=O)NCC2CCCCC2)oc2ccc(S(=O)(=O)N3CCC(C)CC3)cc12 [compound 80] | 4.70 to 5.30
19 | CNC(=O)c1oc2ccc(S(=O)(=O)N3CCCCC3)cc2c1C [compound 155] | > 4.70
20 | CC1CCCN(C(=O)c2cc3cc(S(=O)(=O)N4CCCCCC4)ccc3[nH]2)C1 (centres unmarked) [compound 55] | > 5.30
21 | CC1CCN(C(=O)c2cc3cc(S(=O)(=O)N4CCC(C)CC4)ccc3[nH]2)CC1 [compound 147] | > 5.30
22 | CC1CC(C)CN(S(=O)(=O)c2ccc3c(c2)cc(C(=O)N2CCCCC2)n3S(=O)(=O)c2ccc(F)cc2)C1 (centres unmarked) [compound 107] | > 5.30
23 | Cc1c(C(=O)N2CCC(C)CC2)oc2ccc(S(=O)(=O)N3CCOCC3)cc12 [compound 163] | > 4.70

Row | SMILES | pIC50
24 | CCN(CC)S(=O)(=O)c1ccc2oc(C(=O)NCc3ccccc3)c(C)c2c1 [compound 250] | 4.70 to 5.30
25 | Cc1c(C(=O)N2CCCCC2C)[nH]c2ccc(S(=O)(=O)N3CC(C)CC(C)C3)cc12 (centres unmarked) [compound 297] | > 5.30
26 | Cc1c(C(=O)N2CCSCC2)oc2ccc(S(=O)(=O)N3CCC(C)CC3)cc12 [compound 236] | 4.70 to 5.30
27 | CC1CC(C)CN(S(=O)(=O)c2ccc3[nH]c(C(=O)N(C)Cc4ccccc4)cc3c2)C1 (centres unmarked) [compound 185] | > 5.30
28 | Cc1c(C(=O)N(CCN(C)C)Cc2ccccc2)oc2ccc(S(=O)(=O)N3CCC(C)CC3)cc12 [compound 396] | > 5.30
29 | Cc1c(C(=O)NC2CCCC(C)C2C)oc2ccc(S(=O)(=O)N3CCOCC3)cc12 (centres unmarked) [compound 187] | 4.70 to 5.30
30 | CCCN(c1ccc2[nH]c(C(=O)NC3CC3)cc2c1)S(=O)(=O)c1ccccc1 [compound 181] | 4.70 to 5.30
31 | CC1CCN(S(=O)(=O)c2ccc3[nH]cc(C(=O)N4CCN(C)CC4)c3c2)CC1 [compound 338] | > 4.70
32 | CCCCN(C)C(=O)c1oc2ccc(S(=O)(=O)N3CCCC(C)C3)cc2c1C (centres unmarked) [compound 369] | > 5.30
33 | CC1CCN(S(=O)(=O)c2ccc3[nH]cc(C(N)=O)c3c2)CC1 [compound 306] | > 4.70
34 | CCN(CC)Cc1cc2cc(S(=O)(=O)N3CCC(C)CC3)ccc2[nH]1 [compound 326] | > 5.30
35 | Cc1c(C(=O)NCc2ccccc2)[nH]c2ccc(S(=O)(=O)N3CCC(C)CC3)cc12 [compound 120] | > 5.30
36 | CCCCN(C)C(=O)c1cc2cc(S(=O)(=O)N3CCCCCC3)ccc2o1 [compound 113] | > 5.30
37 | CC1CC(C)CN(S(=O)(=O)c2ccc3[nH]c(C(=O)NCC4CCOCC4)cc3c2)C1 (centres unmarked) [compound 275] | > 5.30
38 | CC1CCCN(C(=O)c2cc3cc(S(=O)(=O)N4CC(C)CC(C)C4)ccc3o2)C1 (centres unmarked) [compound 406] | > 5.30
39 | CCN(CC)C(=O)c1cc2cc(S(=O)(=O)N3CCC(C)CC3)ccc2[nH]1 [compound 315] | > 5.30
40 | CCCCN(C)C(=O)c1oc2ccc(S(=O)(=O)N3CC(C)CC(C)C3)cc2c1C (centres unmarked) [compound 321] | > 5.30
41 | CCOC(=O)N1CCN(C(=O)c2cc3cc(S(=O)(=O)N4CCCCCC4)ccc3[nH]2)CC1 [compound 72] | 4.70 to 5.30
42 | CC1CCN(S(=O)(=O)c2ccc3oc(C(=O)N4CCCC4)cc3c2)CC1 [compound 231] | 4.70 to 5.30
43 | CCN(CC)S(=O)(=O)c1ccc2oc(C(=O)N(C)Cc3ccccc3)c(C)c2c1 [compound 308] | > 5.30

Row | SMILES | pIC50
44 | CCN(CC)C(=O)c1cc2cc(S(=O)(=O)N3CC(C)CC(C)C3)ccc2n1CC(O)CN(C)C (centres unmarked) [compound 314] | 4.70 to 5.30
45 | CC1CCN(S(=O)(=O)c2ccc3[nH]c(C(=O)N4CCCCC4)cc3c2)CC1 [compound 368] | > 5.30
46 | Cc1c(C(=O)N2CCC(C)CC2)oc2ccc(S(=O)(=O)N3CC(C)CC(C)C3)cc12 (centres unmarked) [compound 466] | > 5.30
47 | CC1CCN(S(=O)(=O)c2ccc3[nH]c(C(=O)NCCCc4ccccc4)cc3c2)CC1 [compound 98] | > 5.30
48 | Cc1c(C(=O)NCc2ccccc2)oc2ccc(S(=O)(=O)N3CCCCCC3)cc12 [compound 44] | 4.70 to 5.30
49 | Cc1c(C(=O)N2CCCC(C)C2)oc2ccc(S(=O)(=O)N3CC(C)CC(C)C3)cc12 (centres unmarked) [compound 378] | > 5.30
50 | CC1CCN(S(=O)(=O)c2ccc3[nH]c(C(=O)N4CCCC4)cc3c2)CC1 [compound 104] | 4.70 to 5.30
51 | CCN(CC)C(=O)c1cc2cc(S(=O)(=O)N3CCCCCC3)ccc2[nH]1 [compound 46] | > 5.30
52 | Cc1c(C(=O)NC2CC2)oc2ccc(S(=O)(=O)Nc3ncns3)cc12 [compound 316] | > 4.70
53 | CN1CCN(C(=O)c2cc3cc(S(=O)(=O)N4CCCCCC4)ccc3n2S(=O)(=O)c2ccccc2)CC1 [compound 135] | 4.70 to 5.30
54 | CN1CCN(C(=O)c2cc3cc(S(=O)(=O)N4CCCCCC4)ccc3[nH]2)CC1 [compound 220] | 4.70 to 5.30
55 | Cc1c(C(=O)N2CCCCC2C)[nH]c2ccc(S(=O)(=O)N3CCCCCC3)cc12 (centres unmarked) [compound 379] | 4.70 to 5.30
56 | Cc1c(C(=O)N(C)Cc2ccccc2)oc2ccc(S(=O)(=O)N3CCOCC3)cc12 [compound 360] | 4.70 to 5.30
57 | CC1CC(C)CN(C(=O)c2cc3cc(S(=O)(=O)N4CC(C)CC(C)C4)ccc3o2)C1 (centres unmarked) [compound 29] | > 5.30
58 | CCOC(=O)C1CCN(C(=O)c2oc3ccc(S(=O)(=O)N4CC(C)CC(C)C4)cc3c2C)CC1 (centres unmarked) [compound 336] | > 5.30
59 | CC1CC(C)CN(S(=O)(=O)c2ccc3[nH]c(C(=O)N4CCCCC4C)cc3c2)C1 (centres unmarked) [compound 241] | > 5.30
60 | Cc1c(C(=O)NC2CCCC2)oc2ccc(S(=O)(=O)N3CCC(C)CC3)cc12 [compound 148] | > 5.30
61 | Cc1c(C(=O)N2CCCCC2)[nH]c2ccc(S(=O)(=O)N3CCC(C)CC3)cc12 [compound 74] | > 5.30
62 | Cc1c(C(=O)N2CCC(C)CC2)[nH]c2ccc(S(=O)(=O)N3CCC(C)CC3)cc12 [compound 269] | 4.70 to 5.30
